We go through six molecules from EP2371816A1, “Aminocyclohexenone, their preparation and use as medicament against oxidative stress” (ABIOGEN PHARMA S.p.A., priority 2010, dated 2011).

The nature of series [1]: TEAC method (Trolox Equivalent Antioxidant Capacity Assay). To be noted: ratio of gradient to gradient of reference (trolox); 37 °C, 650 nm, pH 4.5. The source says:
This assay is used to measure the total antioxidant activity of pure substances, biological fluids and plant compounds and is based on the reaction of antioxidants with the cation radical ABTS^˙+ (2,2'-azinobis(3-ethylbenzothiazolin-6-sulphonate)). This cation radical is metastable and has to be generated just before the experiment by reacting ABTS with hydrogen peroxide in the presence of HRP.
This radical can be reduced, with consequent loss of absorbance, by an antioxidant whose scavenging capacity can be measured spectrophotometrically at 650 nm. The test is carried out at 37 °C and the results are obtained from a comparison with Trolox (a synthetic antioxidant and hydrophilic analogue of vitamin E).
The ABTS solution S1 was prepared as follows: • 20 mg of ABTS were added to 50 mM of citric acid buffer (40 ml) at pH=4.5 and to the resulting solution there was added an aqueous solution of HRP (4.4 mg, 400 µl) and an aqueous solution of H2O2 (10 µl of a 30% solution diluted with 16.3 ml of water).
For each of the compounds (2), (6) and (7), as synthesized above, there was prepared a 600 µM solution in water, methanol or DMSO according to its solubility, as well as a Trolox solution as reference.
Each solution was diluted to produce 6 solutions each at a concentration between 25 µM and 300 µM. From each of the diluted and divided solutions, there were withdrawn 20 µl to which 200 µl of solution S1 were then added.
The decrease in absorbance of each solution thus obtained was monitored at 650 nm until a stable value was reached (about 90 minutes).
For each set of 6 solutions and for the reference trolox solution, the absorption was given in graph form as a function of the amount of compound (nmol) in the solution. The gradient of the straight line obtained by linear interpolation was determined according to the least squares method. The TEAC value of each compound of the invention is given in the table below and is expressed as the ratio between the gradient of the resulting straight line and the gradient of the reference (trolox) straight line.

For series [2], the system named is cerebral oxidative stress induced in mice by doxorubicin. Description: In vivo assay of cerebral oxidative stress induced in mice by doxorubicin. The conditions noted are these: for CAT/pr / GPX/pr / GSH/pr / GST/pr / Prot. Hmg / Prot. Ox/pr / SOD/pr / Brain/BWi: % variation relative to the vehicle, 50 mg/kg IP x3 days (D = doxorubicin alone); for CAT/pr / GPX/pr / GSH/pr / GST/pr / Prot. Hmg / Prot. Ox/pr / SOD/pr / Brain/BWi / Mean % variation relative to the vehicle: healthy animals; for Mean % variation relative to the vehicle: 50 mg/kg IP days 0, 1 and 2, mean over all parameters, approximate safety index (D = doxorubicin alone). The protocol: The assay was carried out on compounds (1) and (3)-(6) and on edaravone (E) as comparative compound.
10 mice were used for each treatment group. For each compound 50 mg/kg were administered intraperitoneally (IP) for three consecutive days (day 0, 1 and 2); half the animals (5) also received IP 16.7 mg/kg of doxorubicin immediately after the first treatment (day 0). On the day after the last administration (day 3) the animals were killed by neck dislocation and the brains were removed, weighed and frozen in liquid nitrogen.
For the analyses of oxidative stress, 100 mg/ml of brain homogenate was prepared in Hebe buffer (pH 7.4 EDTA/HEPES^(**)) containing a mixture of enzyme inhibitors (Leupeptin, Pepstatin, Aprotinin, BHA). • ^(*) Hypotonic Extraction Buffer • ^(**) 4-2-hydroxyethyl-1-piperazinyl-ethanesulphonic acid
The evaluation parameters were: • BrW/BWi: ratio between final brain weight and initial body weight (day 0); • Prot. Hmg: total proteins in the homogenate (BCA method, i.e. bicinchoninic acid); • Prot. Ox: oxidized proteins in the Hmg by means of a colorimetric method using […] (DNPH); • GSH: reduced glutathione in the supernatant (sn) of the Hmg, obtained after precipitation with metaphosphoric acid (MPA), by means of a colorimetric method using […] (DTNB); • CAT: catalase in the Hmg by a colorimetric method using potassium dichromate; • SOD: superoxide dismutase by a colorimetric method using SOD Reagent (xanthine, EDTA, nitroblue tetrazole, Na2CO3, BSA, i.e. bovine serum albumin); • GST: glutathione S-transferase in the supernatant by a colorimetric method using chlorodinitrobenzene (CDNB) and GSH; and • GPx: glutathione peroxidase in the supernatant after addition of GSH and tert butyl hydroperoxide (t-BuOOH), heating and precipitation with MPA; followed by GSH method with DTNB.
All the parameters, with the exclusion of Brain/BWi and Prot. Hmg, were normalized for total Hmg proteins (Table 3). The D value standard deviations and the % incidence relative to V are given in italics.
The mean % effect, on all the parameters simultaneously, of the triple treatment in the healthy animals, as mean percentage variation relative to the vehicle (table 4). This value is useful as an approximate safety index of the oxidative state of the brain, i.e. the capacity of the compounds of the invention not to alter cerebral homeostasis in healthy animals.
The effect of the tested compounds on the "oxidized" animals was given as % inhibition relative to the percentage variation due to doxorubicin alone. The effect of the compounds on the oxidized animals can be expressed both as a function of the values of the vehicle (healthy, vehicle only) and as a function of the value of its own control (healthy, compound only): • Vehicle: percentage [(Compound+D)/V]x100/[(V+D)/V]x100 • Its own: percentage [(Compound+D)/Compound]x100/[(V+D)/V]x100

The nature of series [3]: pH at the semi-neutralization point of titration (pKa). Format: physicochemical. The conditions noted are these: titration with 0.1 N NaOH or HCl; for pKa: read-out: Acid dissociation constant: pKa. The protocol:
The following equipment was used during the implementation of all the examples: • for melting point determination a Buchi B-540 instrument was used; • for pH determination at the semi-neutralization point of titration (pKa) a Mettler Toledo DL-50 instrument was used with a 0.1 N xNaOH or HCl solution; • the ^1H-NMR spectra were recorded at 300 MHz and the ^13C-NMR spectra were recorded at 75 MHz using a Varian Unity 300 instrument; • spectrophotometric measurements were carried out using a Lambda Perkin Elmer 15 UV/Vis spectrophotometer for the DPPH assay and a Wallac Victor 1420 multilabel counter spectrophotometer.

For series [4] the following is noted: mouse, in vivo. The procedure:
The ability of the compounds of the invention to penetrate the brain was investigated by measuring their brain/plasma (B/P) concentration ratio in mice following intraperitoneal administration.
Female CD-1 mice were used (n=3 for each time period) and received the compounds of the invention by intraperitoneal administration, in 25 mg/kg doses in a 0.5% NaHCO3 buffer (pH 8.3). At predefined intervals following said administration, i.e. 5, 15, 30 and 60 minutes, the mice were killed and both plasma and total brain tissue were collected.
Specifically, after anaesthesia with ether, the animals were bled by blood withdrawal from the abdominal aorta then immediately decapitated. The blood samples were collected into plasma separator tubes containing Li-Heparin as anticoagulant and centrifuged. The resulting plasma was then stored at -20 °C. The brain was rapidly removed from the cranium and weighed, subsequently frozen and stored at -20 °C before treatment by homogenization and HPLC analysis.
The plasma was thawed and mixed with an equal volume of the extraction solution. This extraction solution was a mixture of aqueous and organic solvents whose composition had been previously determined by HPLC undertaken for each analyte.
1 ml of solution was then extracted by adding 20 µl of 70% HClO4 then centrifuged at 15,500g for 5 minutes and injected into the HPLC.
Each brain was thawed and homogenized with the extraction solution to provide a final composition of 4 ml/1g of tissue by means of an Ultra-Turrax blender and sonicated for 5 minutes. After centrifugation of the homogenate at 15,500g for 5 minutes, the resulting solution was treated with HClO4, as indicated for the plasma.
Specific chromatographic conditions had been developed for each analyte, the calibration curve being constructed for plasma and brain homogenate.

Series [5] is described as follows: Acute toxicity study, intraperitoneal single dose (OECD guideline no. 420). Format: in vivo. To be noted: result in words, with reference to Example 13. The procedure: This study was carried out with the purpose of investigating the toxicity of a single dose of the listed compounds administered to ICR (CD-1) female mice. According to the current OECD guideline no.
The mice used were all female and were treated by intraperitoneal injection administration. The animals were observed individually and regularly for the first 4 hours and within 24 hours after administration, and then twice a day for the whole observation period. As soon as the animals were stabilized, observations at the weekend were undertaken once only during the day.
The evaluated parameters included the survival, body weight development, variations in skin and fur, changes in ocular, conjunctival and buccal mucous membranes, changes in activities of the respiratory, circulatory, autonomous and central nervous systems, changes in somatomotor activity and in behaviour.
Any appearance of tremors, convulsions, salivation, diarrhea, lethargy, drowsiness and coma were attentively and regularly monitored. At the end of the observation period, a post-mortem was carried out on all the animals.

Where [6] appears, read: % inhibition relative to variation due to doxorubicin alone, oxidized animals, as function of its own control.
[7] abbreviates: % inhibition relative to variation due to doxorubicin alone, oxidized animals, as function of vehicle.

With `O=C1O[C@H]([C@@H](O)CO)C(O)=C1O` [vitamin C, reference compound], the TEAC in series [1] amounted to 0.9.
As for `COc1cccc2c1C(=O)c1c(O)c3c(c(O)c1C2=O)C[C@@](O)(C(=O)CO)C[C@@H]3O[C@H]1C[C@H](N)[C@H](O)[C@H](C)O1` [D, doxorubicin, reference compound], in series [2], the CAT/pr was -13.2%, the GPX/pr is listed as -9.9%, the GSH/pr was -12.5% and the GST/pr is on record as -9.1%. In addition, in series [2], the “Prot. Hmg” value came out at 8.3%, the “Prot. Ox/pr” value came out at 17.2%, the SOD/pr was -14.3% and the “Mean % variation relative to the vehicle” value is -11.4%. For the same molecule, in series [2] (50 mg/kg), the Brain/BWi is given as -6.9%. Also, the Brain/BWi in series [2] (listed as Doxo, 50 mg/kg) turned out to be 6.9%.
As for `CC1(C)CC(=O)C=C(N(O)Cc2cccnc2)C1` [(4), 3-(hydroxy(pyridin-3-ylmethyl)amino)-5,5-dimethylcyclohex-2-enone], in series [3], the “Acid dissociation constants: pKa1” value is 2.70 and the “Acid dissociation constants: pKa2” value is on record as 6.47. For the same molecule, in series [2] (setting [6]), the Brain/BWi its own came out at 56.5%, the CAT/pr its own is -43.2%, the GPX/pr its own is given as -6.1% and the GSH/pr its own is listed as 35.2%. Further, in series [2] (setting [6]), the GST/pr its own is -34.1%, the “Prot. Hmg its own” value is on record as -38.6%, the “Prot. Ox/pr its own” value is recorded as 57.6% and the SOD/pr its own is 73.4%. Moreover, in series [2] (setting [7]), the Brain/BWi vehicle is listed as 79.7%, the CAT/pr vehicle turned out to be 9.1%, the GPX/pr vehicle is reported as -8.1% and the GSH/pr vehicle is given as 39.2%. In series [2] (setting [7]), the GST/pr vehicle is -45.1%, the “Prot. Hmg vehicle” value was determined as 1.2%, the “Prot. Ox/pr vehicle” value was -106.4% and the SOD/pr vehicle was 73.4%. For the same molecule, in series [2], the Brain/BWi is recorded as -0.1%, the CAT/pr was -9.3%, the GPX/pr is reported as 0.1% and the GSH/pr is reported as -0.2%. In addition, in series [2], the GST/pr worked out at 0.5%, the “Prot. Hmg” value is 1.2%, the “Prot. Ox/pr” value is -10.3% and the SOD/pr is on record as 0.0%. Moreover, the “Mean % variation relative to the vehicle” value in series [2] is given as 0.0%. For the same molecule, the “bioavailability at the target site / crossing of the blood-brain barrier” value in series [4] is “particularly bioavailable, as well as able to cross the blood-brain barrier in effective amounts”. Moreover, in series [5], the “toxicity evaluation in vivo (tolerability)” value (shortened to “toxicity evaluation in vivo”) is “well tolerated”.
Regarding `O=C1C=C(NN2CCCCC2)CC(c2ccccc2)C1` (stereo not drawn) [(2), 5-phenyl-3-(piperidin-1-ylamino)cyclohex-2-enone], the TEAC in series [1] stood at 1.67.
As for `CC1(C)CC(=O)C=C(NN2CCOCC2)C1` [(7), 5,5-dimethyl-3-(morpholinoamino)cyclohex-2-enone], in series [3], the pKa was 2.94. In series [1], the TEAC worked out at 0.8. Also, in series [4], the “bioavailability at the target site / crossing of the blood-brain barrier” value is reported as “particularly bioavailable, as well as able to cross the blood-brain barrier in effective amounts”. In series [5], the “toxicity evaluation in vivo” value was “well tolerated”.
`CC1(C)CC(=O)C=C(N(O)Cc2ccccn2)C1` [(5), 3-(hydroxy(pyridin-2-ylmethyl)amino)-5,5-dimethylcyclohex-2-enone]: the pKa in series [3] is 4.2. Further, in series [2], the Brain/BWi is -3.3%, the CAT/pr was -6.2%, the GPX/pr is on record as 1.5% and the GSH/pr was -0.9%. Moreover, in series [2], the GST/pr was 3.1%, the “Prot. Hmg” value was 0.7%, the “Prot. Ox/pr” value is recorded as -5.5% and the SOD/pr is listed as -2.3%. In addition, in series [2], the “Mean % variation relative to the vehicle” value is given as -0.4%. Besides, in series [4], the “bioavailability at the target site / crossing of the blood-brain barrier” value is given as “particularly bioavailable, as well as able to cross the blood-brain barrier in effective amounts”. In addition, the “toxicity evaluation in vivo” value in series [5] is listed as “well tolerated”.
